The compounds below were run on CCc1nnc(SCc2ccccc2F)c2cc3sc(C)cc3n12 (assay: Binding affinity to PKM2 (unknown origin) assessed as Michaelis-constant). Conditions: Homo sapiens; filed as activator.
Sequence of Pyruvate kinase PKM (Homo sapiens), P14618 (P14618 whole entry): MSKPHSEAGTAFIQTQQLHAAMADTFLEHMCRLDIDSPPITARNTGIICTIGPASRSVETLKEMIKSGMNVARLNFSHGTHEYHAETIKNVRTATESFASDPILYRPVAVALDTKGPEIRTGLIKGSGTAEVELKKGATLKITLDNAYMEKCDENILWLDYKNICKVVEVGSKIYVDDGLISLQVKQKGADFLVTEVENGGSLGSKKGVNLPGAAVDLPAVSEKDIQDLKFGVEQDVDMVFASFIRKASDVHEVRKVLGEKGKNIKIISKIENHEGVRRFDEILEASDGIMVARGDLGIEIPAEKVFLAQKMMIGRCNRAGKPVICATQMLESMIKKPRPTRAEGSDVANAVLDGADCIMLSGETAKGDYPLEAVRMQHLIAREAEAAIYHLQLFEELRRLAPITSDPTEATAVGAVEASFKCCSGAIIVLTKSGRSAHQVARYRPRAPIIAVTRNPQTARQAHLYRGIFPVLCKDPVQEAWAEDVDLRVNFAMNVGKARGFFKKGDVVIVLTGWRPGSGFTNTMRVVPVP
In the case of “Pyruvate kinase PKM (Homo sapiens), P14618”, the Km is reported as 480 µM.

These compounds were tested against Pyruvate kinase PKM (Homo sapiens) (UniProt P14618) (assay: Inhibition of recombinant PKM2 (unknown origin) Asp178, Asp177, Ser362, Lys367, Hie78, Ser205, Gly128, Thr129, Tyr83, Asn75, Ile51 residues at 40 uM relative to control). Conditions: not given.
Sequence of Pyruvate kinase PKM (Homo sapiens) (P14618 2-531 limits assumed): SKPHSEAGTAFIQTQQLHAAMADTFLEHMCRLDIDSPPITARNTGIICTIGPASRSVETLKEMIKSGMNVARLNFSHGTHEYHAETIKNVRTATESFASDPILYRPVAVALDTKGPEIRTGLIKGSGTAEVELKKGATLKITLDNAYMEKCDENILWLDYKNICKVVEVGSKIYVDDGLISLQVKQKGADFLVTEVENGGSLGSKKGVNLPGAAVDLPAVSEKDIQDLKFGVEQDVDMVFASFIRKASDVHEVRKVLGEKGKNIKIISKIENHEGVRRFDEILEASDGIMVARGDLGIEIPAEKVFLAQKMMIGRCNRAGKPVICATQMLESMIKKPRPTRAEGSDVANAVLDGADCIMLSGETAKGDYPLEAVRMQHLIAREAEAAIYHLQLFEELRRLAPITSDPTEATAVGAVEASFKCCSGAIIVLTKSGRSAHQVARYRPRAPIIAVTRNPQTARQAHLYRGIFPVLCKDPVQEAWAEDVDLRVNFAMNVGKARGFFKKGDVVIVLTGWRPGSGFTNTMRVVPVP
With O=C(O[C@@H]1Cc2c(O)cc(O)cc2O[C@@H]1c1cc(O)c(O)c(O)c1)c1cc(O)c(O)c(O)c1 the inhibition was 49%.

What follows are compounds tested against Pyruvate kinase PKM (Homo sapiens) (UniProt P14618) (assay: Inhibition of PKM2 (unknown origin)). Conditions: concentration not given here.
Set-up: concentration or dose not given beside the values
For C[C@@H](O)[C@H](N)C(=O)O, the inhibition was 20%.
For N[C@@H](Cc1c[nH]c2ccccc12)C(=O)O, the inhibition was 65%.
N[C@@H](Cc1ccccc1)C(=O)O gave an inhibition of 100%.
With CSCC[C@H](N)C(=O)O the inhibition was 65%.
For CC(C)[C@H](N)C(=O)O, the inhibition was 65%.
N[C@@H](CS)C(=O)O gave an inhibition of 20%.
For CC[C@H](C)[C@H](N)C(=O)O, the inhibition was 20%.
With C[C@H](N)C(=O)O the inhibition was 100%.
In the case of O=C(O)[C@@H]1CCCN1, the inhibition is reported as 65%.

Reference: ChEMBL document CHEMBL5136976, “A Perspective on Medicinal Chemistry Approaches for Targeting Pyruvate Kinase M2” (J Med Chem, 2022)
